The values below come from patent publication US4140769A, “3-Substituted salicylamides” (Miles Laboratories, Inc., priority 1978, dated 1979).

Structures can show the parent of a compound that is named as a salt. Where two headings read alike, the source gives them in different places. A value given as a limit tells only on which side of the number the result lay.

Test [1] concerns abdominal constriction response. The experiment in a line: abdominal constriction response (analgesic activity, acetylcholine chloride-induced, s.c. dosing). It counts as in vivo, mice. The following applies: for ED50: Mus musculus, sc; for analgesic activity, in words: Table II conclusions and summary; for ED50 / potency, in words: compared with control compound, other examples; for analgesic activity (no activity): at 20 mg/kg, hydrochloride. As for the experimental part: The analgesic activity of the compounds of the present invention was tested in mice by means of the "abdominal constriction" response. The test is based on the observation that following interperitoneal injection of a noxious agent, such as acetylcholine chloride, mice show a response which consists of a wave of constriction and elongation passing caudally along the abdominal wall, sometimes accompanied by twisting of the trunk and followed by extension of the hind limbs. […] Non-fasted female mice, weighing between 20 and 25 g, were used in the studies. […] The animals were then placed in a circular glass enclosure and the number of responses counted during a given time period. Compounds completely inhibiting the response to acetycholine in at least five out of ten animals were subsequently tested at reduced dosage levels, using groups of ten animals per dose. The dose required to produce a specified response, that is, analgesic effect, is termed the individual effective dose; the response is a quantal rather than a graded response, since it is either present or absent. The cumulative frequency distribution of individual effective doses obtained, plotted as a function of logarithm of dose, is known as a dose-percent or dose-response curve. The ED50 and ED90 is then calculated from the dose-response curve obtained in the above experiments. […] The expression ED90 indicates the amount of compound required to produce an analgesic effect in 90 percent of animals tested.

Test [2] shares this test system. Description: duration of analgesic activity (abdominal constriction response, time for 50 percent decay of the analgesic effect of the ED90 dosage). The following applies: for increase in duration of activity versus unsubstituted control compound (factor): in comparison to the unsubstituted control compound; for Duration of Activity 1/2 T: time to 50 percent decay of analgesic effect, pharmacologically equipotent doses, based on ED90 dosages. It counts as in vivo, mice. As for the experimental part: The analgesic activity of the compounds of the present invention was tested in mice by means of the "abdominal constriction" response. The test is based on the observation that following interperitoneal injection of a noxious agent, such as acetylcholine chloride, mice show a response which consists of a wave of constriction and elongation passing caudally along the abdominal wall, sometimes accompanied by twisting of the trunk and followed by extension of the hind limbs. […] Non-fasted female mice, weighing between 20 and 25 g, were used in the studies. […] The animals were then placed in a circular glass enclosure and the number of responses counted during a given time period.

Setting [3] is: subcutaneous, 10 min before i.p. acetylcholine chloride (3.2 mg/kg), mice, read-out: ED50.

As to `CCN(CC)CCNC(=O)c1cccc(CC(C)C)c1O` [Example 5, N-(2-diethylaminoethyl)-3-isobutylsalicylamide hydrochloride], the ED50 in test [1] (setting [3]) was found to be 44.5 mg/kg. In test [2], the “increase in duration of activity versus unsubstituted control compound (factor)” value was “greater than 5 fold” and the “Duration of Activity 1/2 T” value was 205 min.
As for `C=CCc1cccc(C(=O)NCCN(CC)CC)c1O` [Example 8, N-(2-diethylaminoethyl)-3-allylsalicylamide oxalate], the 50% effective dose (ED50) in test [1] (setting [3]) was determined as 17.2 mg/kg. The “Duration of Activity 1/2 T” value in test [2] turned out to be 80 min.
Consider `CCN(CC)CCNC(=O)c1cccc(C)c1O` [Example 2, N-(2-diethylaminoethyl)-3-methylsalicylamide hydrochloride], for which, in test [1], the 50% effect level (ED50) was put at a dose of 14.2 mg/kg and the “ED50 / potency, in words” value is reported as “fairly low ED50”. For the same compound, in test [1] (mice), the “analgesic activity, in words” value is “exhibited analgesic activity”. The “duration of analgesic activity, in words” value in test [2] (compared with control or prior art compounds) is “no meaningful increase in the duration of analgesic activity”. Further, in test [2], the “Duration of Activity 1/2 T” value is < 40 min.
For `CCN(CC)CCNC(=O)c1cccc(C(C)(C)C)c1O` [Example 6, N-(2-diethylaminoethyl)-3-t-butylsalicylamide hydrochloride], in test [1] (setting [3]), the ED50 came out at 14.3 mg/kg. Moreover, in test [1], the “ED50 / potency, in words” value is listed as “substantially at the same potency as that of the control compound”. For the same compound, in test [2], the “Duration of Activity 1/2 T” value came out at 120 min.
Turning to `CCCCc1cccc(C(=O)NCCN(CC)CC)c1O` [Example 4, N-(2-diethylaminoethyl)-3-n-butylsalicylamide oxalate], the median effective dose (ED50) in test [1] (setting [3]) turned out to be 31 mg/kg. In test [1], the “ED50 / potency, in words” value is “less active analgesics than the other examples and the control sample”. In test [2], the “increase in duration of activity versus unsubstituted control compound (factor)” value is “greater than 5 fold” and the “Duration of Activity 1/2 T” value was 125 min.
Take `CCN(CC)CCNC(=O)c1ccccc1O.Cl` [Control, N-(2-diethylaminoethyl)salicylamide hydrochloride, reference compound]: the median effective dose (ED50) in test [1] (setting [3]) turned out to be 16.6 mg/kg. Further, the “analgesic activity, in words” value in test [1] (mice) is recorded as “exhibited analgesic activity”.
On to `C=C(C)Cc1cccc(C(=O)NCCN(CC)CC)c1O` [Example 9, N-(2-diethylaminoethyl)-3-methallylsalicylamide oxalate], for which the ED50 in test [1] (setting [3]) was determined as 23.8 mg/kg. In test [1], the “ED50 / potency, in words” value is reported as “substantially at the same potency as that of the control compound”. Moreover, the “Duration of Activity 1/2 T” value in test [2] was determined as 60 min.
As to `CCCCCCCCc1cccc(C(=O)NCCN(CC)CC)c1O` [Example 3, N-(2-diethylaminoethyl)-3-n-octylsalicylamide hydrochloride], the “analgesic activity (no activity)” value in test [1] is reported as “no activity”; in test [1] (listed as n-octyl), “no analgesic activity”.
Consider `CCN(CC)CCNC(=O)c1cccc(C(C)C)c1O` [Example 1, N-(2-diethylaminoethyl)-3-isopropylsalicylamide hydrochloride], for which the median effective dose (ED50) in test [1] (setting [3]) came out at 12.7 mg/kg. In test [1], the “ED50 / potency, in words” value is recorded as “substantially at the same potency as that of the control compound”. In test [2], the “Duration of Activity 1/2 T” value came to 80 min.
Turning to `CCN(CC)CCNC(=O)c1cccc(Cl)c1O` [Example 10, N-(2-diethylaminoethyl)-3-chlorosalicylamide hydrochloride], the “analgesic activity (no activity)” value in test [1] is recorded as “no activity”; in test [1] (listed as 3-chloro), “no analgesic activity”.
In the case of `CCN(CC)CCNC(=O)c1cccc(C(C)(C)CC)c1O` [Example 7, N-(2-diethylaminoethyl)-3-t-amylsalicylamide hydrochloride], the “analgesic activity (no activity)” value in test [1] is listed as “no activity”; in test [1] (listed as amyl) it was “no analgesic activity”.

The term ED50 denotes the dose at which the effect has come halfway, by size or by number of responders.
